Measured values reported in ChEMBL document CHEMBL4420070, “6-6 Fused Bicyclic Heteroaryl Compounds and their Use as LATS Inhibitors” (2018).
Each block holds one molecule with its values, some of them ahead of it. The source made the active and inactive calls. No cut-off for these calls is given here.

Key:
[1] = molecular target: T1, Serine/threonine-protein kinase LATS1 (Homo sapiens, UniProt O95835); experiment: Inhibition of human LATS1 kinase domain (589 to 1130 amino acids) incubated for 30 mins by HTRF assay
T1 sequence (O95835 whole entry): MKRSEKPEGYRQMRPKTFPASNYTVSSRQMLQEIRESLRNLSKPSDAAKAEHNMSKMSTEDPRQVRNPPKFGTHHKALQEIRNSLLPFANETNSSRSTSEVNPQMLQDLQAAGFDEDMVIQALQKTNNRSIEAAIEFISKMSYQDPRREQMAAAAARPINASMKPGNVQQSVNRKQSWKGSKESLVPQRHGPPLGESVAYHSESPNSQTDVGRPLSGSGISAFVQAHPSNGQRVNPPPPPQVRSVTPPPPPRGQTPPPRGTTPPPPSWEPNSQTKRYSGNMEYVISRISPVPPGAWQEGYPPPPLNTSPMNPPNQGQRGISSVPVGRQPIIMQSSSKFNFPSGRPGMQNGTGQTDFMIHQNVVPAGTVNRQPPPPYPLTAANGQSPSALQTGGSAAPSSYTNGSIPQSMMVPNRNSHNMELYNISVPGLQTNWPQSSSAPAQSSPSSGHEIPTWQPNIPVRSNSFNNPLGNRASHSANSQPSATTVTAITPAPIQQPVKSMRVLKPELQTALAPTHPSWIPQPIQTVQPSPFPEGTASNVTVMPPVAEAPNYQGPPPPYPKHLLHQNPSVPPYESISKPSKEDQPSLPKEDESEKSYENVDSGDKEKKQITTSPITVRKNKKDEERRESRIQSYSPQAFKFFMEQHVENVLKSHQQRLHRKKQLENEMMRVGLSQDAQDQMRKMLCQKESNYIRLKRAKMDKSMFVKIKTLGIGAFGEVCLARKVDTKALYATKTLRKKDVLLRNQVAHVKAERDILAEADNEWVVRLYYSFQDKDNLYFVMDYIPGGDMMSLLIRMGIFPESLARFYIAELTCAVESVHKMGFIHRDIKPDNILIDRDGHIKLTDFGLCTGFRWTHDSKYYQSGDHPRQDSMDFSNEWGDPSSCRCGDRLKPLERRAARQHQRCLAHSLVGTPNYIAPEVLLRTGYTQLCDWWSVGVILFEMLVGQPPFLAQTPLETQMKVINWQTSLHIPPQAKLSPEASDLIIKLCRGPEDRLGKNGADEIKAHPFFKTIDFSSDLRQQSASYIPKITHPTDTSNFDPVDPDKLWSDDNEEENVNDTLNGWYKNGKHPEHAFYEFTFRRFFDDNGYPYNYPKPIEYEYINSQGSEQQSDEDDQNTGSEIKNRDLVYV

[2] = molecular target: T2, Serine/threonine-protein kinase LATS (Homo sapiens) (UniProt Q9NRM7+O95835); experiment: Inhibition of LATS in human corneal endothelium cells assessed as induction of cell expansion by measuring cell density at 10 uM by Sytox orange dye based epifluorescence microscopy
[3] = molecular target: T2, Serine/threonine-protein kinase LATS (Homo sapiens); experiment: Inhibition of LATS in human limbal epithelial cells assessed as induction of limbal stem cell expansion by measuring expansion factor ratio at 10 uM measured after 2 weeks by p63alpha expression detection based immunohistochemistry relative to control; design: scale not given: the % may be the effect or the level left
[4] = Total drug level in cell pellets of human limbal stem cells by LC-MS analysis; type: ADME
[5] = Drug level in post wash cell pellets of human limbal stem cells by LC-MS analysis; type: ADME
Mus musculus [6] = experiment: Inhibition of LATS in C57BL/6J mouse assessed as change in Ki67 protein expression level at 30 mg/kg, po administered as single dose measured after 24 hrs by immunohistochemistry analysis relative to control; type: functional
Mus musculus [7] = experiment: Inhibition of LATS in C57BL/6J mouse assessed as change in Cyr61 mRNA expression level at 30 mg/kg, po administered as single dose measured after 2 hrs by qRT-PCR analysis relative to control; type: functional
Mus musculus [8] = experiment: Inhibition of LATS in C57BL/6J mouse assessed as change in CTGF mRNA expression level at 30 mg/kg, po administered as single dose measured after 2 hrs by qRT-PCR analysis relative to control; type: functional
[9] = molecular target: T2, Serine/threonine-protein kinase LATS (Homo sapiens); experiment: Inhibition of LATS in human corneal endothelium cells assessed as reduction in YAP phosphorylation at 10 uM incubated for 1 hr by Western blot analysis
[10] = molecular target: T2, Serine/threonine-protein kinase LATS (Homo sapiens); experiment: Inhibition of LATS in human corneal endothelium cells assessed as induction of cell expansion by measuring Na/K ATPase protein expression at 10 uM incubated for 10 days by immunohistochemistry
[11] = molecular target: T2, Serine/threonine-protein kinase LATS (Homo sapiens); experiment: Inhibition of LATS in human limbal epithelial cells assessed as induction of limbal stem cell expansion by measuring p63alpha expression at 10 uM measured after 2 weeks by immunohistochemistry; type: cell-based
[12] = molecular target: T2, Serine/threonine-protein kinase LATS (Homo sapiens); experiment: Inhibition of LATS in human corneal endothelium cells assessed as increase in YAP level at 10 uM incubated for 24 hrs by immunohistochemistry
[13] = molecular target: T2, Serine/threonine-protein kinase LATS (Homo sapiens); experiment: Inhibition of LATS in human limbal epithelial cells assessed as induction of limbal stem cell expansion marker expression by measuring deltaN-p63-alphabetagamma protein expression at 10 uM incubated for 8 to 10 days by immunohistochemistry; type: cell-based
[14] = molecular target: T2, Serine/threonine-protein kinase LATS (Homo sapiens); experiment: Inhibition of LATS in human limbal epithelial cells assessed as reduction in YAP phosphorylation level at 10 uM incubated for 1 hr by Western blot analysis; type: cell-based; conditions: Epithelial cell
[15] = molecular target: T2, Serine/threonine-protein kinase LATS (Homo sapiens); experiment: Inhibition of LATS in human corneal endothelium cells assessed as induction of cell expansion by measuring Collagen 8a2 protein expression at 10 uM incubated for 10 days by immunohistochemistry
[16] = molecular target: T2, Serine/threonine-protein kinase LATS (Homo sapiens); experiment: Inhibition of LATS in human corneal endothelium cells assessed as induction of tight junctions formation by measuring ZO1 expression at 10 uM incubated for 10 days by immunofluorescence staining based confocal microscopy
[17] = molecular target: T2, Serine/threonine-protein kinase LATS (Homo sapiens); experiment: Inhibition of LATS in human corneal endothelium cells assessed as induction of cell expansion by measuring Collagen 8a2 gene expression at 10 uM incubated for 10 days by RT-PCR analysis
[18] = molecular target: T2, Serine/threonine-protein kinase LATS (Homo sapiens); experiment: Inhibition of LATS in human limbal epithelial cells assessed as increase in YAP level at 10 uM incubated for 24 hrs by immunostaining based assay; conditions: Epithelial cell
[19] = molecular target: T2, Serine/threonine-protein kinase LATS (Homo sapiens); experiment: Inhibition of LATS in human corneal endothelium cells assessed as induction of cell proliferation measured every 3 hrs for 10 days
[20] = molecular target: T2, Serine/threonine-protein kinase LATS (Homo sapiens); experiment: Inhibition of LATS in human corneal endothelium cells assessed as induction of cell expansion by measuring AQP1 gene expression at 10 uM incubated for 10 days by RT-PCR analysis
[21] = molecular target: T2, Serine/threonine-protein kinase LATS (Homo sapiens); experiment: Inhibition of LATS in human corneal endothelium cells assessed as induction of cell expansion by measuring SLC4A11 gene expression at 10 uM incubated for 10 days by RT-PCR analysis
[22] = molecular target: T2, Serine/threonine-protein kinase LATS (Homo sapiens); experiment: Inhibition of LATS in human corneal endothelium cells assessed as induction of normal corneal endothelial cell morphology at 10 uM incubated for 10 days by immunofluorescence staining based confocal microscopy
[23] = molecular target: T2, Serine/threonine-protein kinase LATS (Homo sapiens); experiment: Inhibition of LATS in human limbal epithelial cells assessed as induction of cell differentiation into corneal epithelial cells by measuring keratin-12 expression at 10 uM incubated for 8 to 10 days followed by medium change to DMEM medium without serum and compound for further incubation for 4 to 8 days by confocal microscopy; type: cell-based
[24] = molecular target: T2, Serine/threonine-protein kinase LATS (Homo sapiens); experiment: Inhibition of LATS in human limbal epithelial cells assessed as induction of limbal stem cell expansion marker expression by measuring C/EBPdelta protein expression at 10 uM incubated for 8 to 10 days by immunohistochemistry; type: cell-based
[25] = molecular target: T2, Serine/threonine-protein kinase LATS (Homo sapiens); experiment: Inhibition of LATS in human limbal epithelial cells assessed as induction of limbal stem cell expansion marker expression by measuring ABCG2 protein expression at 10 uM incubated for 8 to 10 days by immunohistochemistry; type: cell-based
Oryctolagus cuniculus [26] = organism: Oryctolagus cuniculus; experiment: Induction of tissue regeneration in NZA rabbit with limbal stem cell deficiency transplanted with 10 uM compound treated human limbal stem cells assessed as induction of limbal stem cell population expansion by measuring regeneration of keratin-12-positive corneal epithelium using compound attached to contact lens using GelMA polymerization and delivered into corneal surface; type: functional, organism-based
Oryctolagus cuniculus [27] = organism: Oryctolagus cuniculus; experiment: Induction of tissue regeneration in NZA rabbit with limbal stem cell deficiency transplanted with 10 uM compound treated human limbal stem cells assessed as induction of limbal stem cell population expansion by human mitochondrial protein expression in corneal epithelium of transplanted eyes using compound attached to contact lens using GelMA polymerization and delivered into corneal surface; type: functional, organism-based
Mus musculus [28] = experiment: Induction of basal skin cell proliferation in C57BL/6 mouse at 250 ug administered topically twice per day by micrography; type: functional, organism-based
Mus musculus [29] = experiment: Inhibition of LATS in C57BL/6 mouse with full-thickness excisional wounds assessed as up-regulation of YAP target gene Cyr61 expression at 0.2 to 2 mg/ml administered topically by RT-PCR analysis; type: functional, organism-based
Mus musculus [30] = experiment: Induction of epidermal thickness in C57BL/6 mouse at 250 ug administered topically twice per day by micrography; type: functional, organism-based

T2 sequence (Q9NRM7 whole entry, looked up, one chain of several): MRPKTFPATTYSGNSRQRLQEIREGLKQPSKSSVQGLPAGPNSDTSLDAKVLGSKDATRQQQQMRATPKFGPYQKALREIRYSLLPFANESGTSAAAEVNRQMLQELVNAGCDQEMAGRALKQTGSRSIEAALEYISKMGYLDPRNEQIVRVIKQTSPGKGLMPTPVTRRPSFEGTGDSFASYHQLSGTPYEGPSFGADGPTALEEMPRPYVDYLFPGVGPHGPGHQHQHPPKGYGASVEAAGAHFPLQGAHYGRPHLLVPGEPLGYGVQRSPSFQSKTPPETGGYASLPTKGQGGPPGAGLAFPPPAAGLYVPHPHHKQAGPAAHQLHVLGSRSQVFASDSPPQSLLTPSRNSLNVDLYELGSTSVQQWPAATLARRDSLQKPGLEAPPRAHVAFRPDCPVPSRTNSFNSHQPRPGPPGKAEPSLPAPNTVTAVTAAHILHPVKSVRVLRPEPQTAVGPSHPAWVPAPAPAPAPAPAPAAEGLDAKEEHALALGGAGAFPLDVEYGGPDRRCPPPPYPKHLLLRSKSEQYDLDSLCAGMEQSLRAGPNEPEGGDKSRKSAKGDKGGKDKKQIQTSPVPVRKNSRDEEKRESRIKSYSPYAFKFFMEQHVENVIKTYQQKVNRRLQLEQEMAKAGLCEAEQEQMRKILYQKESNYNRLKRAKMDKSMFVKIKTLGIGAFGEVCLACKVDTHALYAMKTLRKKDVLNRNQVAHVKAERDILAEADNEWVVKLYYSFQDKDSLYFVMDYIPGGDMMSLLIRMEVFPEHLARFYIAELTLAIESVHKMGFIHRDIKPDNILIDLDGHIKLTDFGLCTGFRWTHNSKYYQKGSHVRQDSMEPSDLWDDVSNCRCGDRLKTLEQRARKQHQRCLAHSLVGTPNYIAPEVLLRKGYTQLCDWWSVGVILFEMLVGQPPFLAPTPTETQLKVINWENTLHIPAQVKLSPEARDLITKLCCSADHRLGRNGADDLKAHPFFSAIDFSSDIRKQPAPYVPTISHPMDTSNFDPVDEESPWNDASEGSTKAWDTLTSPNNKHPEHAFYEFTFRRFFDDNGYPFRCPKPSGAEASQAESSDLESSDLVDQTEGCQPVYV

SMILES: Cc1n[nH]c(C)c1-c1nc(NC(C)(C)C(F)(F)F)c2ccncc2n1
IC50 [1]: 10 nM

SMILES: c1cc(-c2nc(NC3CCCC3)c3ccncc3n2)ccn1
Activity [2]: 1700 /mm2 | Activity [3]: 57 to 97%

SMILES: O=C(O)CCCNc1nc(-c2ccncc2)nc2cnccc12
IC50 [1]: > 2500 nM

SMILES: CC(C)N(C)c1nc(-c2ccncc2)nc2cnccc12
Activity [2]: 3910 /mm2 | Drug uptake [4]: 415 pg | Drug uptake [5]: 13.5 to 46.5 nM

SMILES: c1cc(-c2nc(NCCCc3nnn[nH]3)c3ccncc3n2)ccn1
fold change (FC) (Mus musculus [6]): 3.3 | fold change (FC) (Mus musculus [7]): 3.5 | fold change (FC) (Mus musculus [8]): 2.1

SMILES: CC(C)(O)CC(C)(C)Nc1nc(-c2ccncc2)nc2cnccc12
inhibition [9]: Active | inhibition [10]: Active | inhibition [11]: Active | Activity [2]: 3870 /mm2 | inhibition [12]: Active | inhibition [13]: Active | inhibition [14]: Active | inhibition [15]: Active | inhibition [16]: Active | inhibition [17]: Active | inhibition [18]: Active | inhibition [19]: Active | inhibition [20]: Active | inhibition [21]: Active | inhibition [22]: Active | inhibition [23]: Active | inhibition [24]: Active | inhibition [25]: Active | Activity [3]: 57 to 97%

SMILES: O[C@H]1CCC[C@@H]1Nc1nc(-c2ccncc2)nc2cnccc12
Activity [2]: 25 /mm2 | Activity [3]: 57 to 97%

SMILES: CC(C)(O)COCC(C)(C)Nc1nc(-c2ccncc2)nc2cnccc12
Activity (Oryctolagus cuniculus [26]): Active | Drug uptake [4]: 178 pg | Activity (Oryctolagus cuniculus [27]): Active | Drug uptake [5]: 7.32 to 14.4 nM

SMILES: CCCNc1nc(-c2ccncc2)nc2cnccc12
Activity [2]: 3270 /mm2 | Activity [3]: 57 to 97%

SMILES: CN(C)CCC(C)(C)Nc1nc(-c2ccncc2)nc2cnccc12
IC50 [1]: 1 nM

SMILES: FC(F)(F)C1(Nc2nc(-c3ccncc3)cc3cnccc23)CC1
Activity [2]: 2780 /mm2 | Activity [3]: 57 to 97%

SMILES: Cc1n[nH]cc1-c1nc(NC2(C)CC2)c2ccncc2n1
inhibition [9]: Active | inhibition [11]: Active | Activity [2]: 2030 /mm2 | Activity (Mus musculus [28]): Active | inhibition [12]: Active | inhibition (Mus musculus [29]): Dose-dependent effect | inhibition [13]: Active | inhibition [14]: Active | Activity (Mus musculus [30]): Active | inhibition [18]: Active | inhibition [19]: Active | inhibition [24]: Active | inhibition [25]: Active | Activity [3]: 57 to 97%

SMILES: CC1CCCC1Nc1nc(-c2ccncc2)nc2cnccc12 (stereo not given)
Activity [2]: 1630 /mm2 | Activity [3]: 57 to 97%

SMILES: FC(F)(F)C1CN(c2nc(-c3ccncc3)nc3cnccc23)CCN1 (stereo not given)
Activity [2]: 2070 /mm2 | Activity [3]: 57 to 97%

Further lines, with some results ahead:

Activity [3]: 57 to 97%
SMILES: FC(F)(F)C1(Nc2nc(-c3ccncc3)nc3cnccc23)CCC1
Activity [2]: 3300 /mm2

IC50 [1]: 20 nM
SMILES: CC1(C)CC(O)CCN1c1cc(-c2ccncc2Cl)nc2cnccc12 (stereo not given)

Activity [3]: 57 to 97%
SMILES: CC(C)Nc1nc(-c2ccncc2)nc2cnccc12
Activity [2]: 3380 /mm2

Activity [3]: 57 to 97%
SMILES: CC(C)(Nc1nc(-c2ccncc2Cl)nc2cnccc12)C(F)(F)F
Activity [2]: 1180 /mm2

IC50 [1]: 7 nM
SMILES: c1cc(-c2cc(NC3CCCC3)c3ccncc3n2)ccn1

Activity [3]: 57 to 97%
SMILES: CCCNc1nc(-c2c[nH]nc2C(F)(F)F)nc2cnccc12
Activity [2]: 1890 /mm2

Activity [3]: 57 to 97%
SMILES: CC(C)(CO)Nc1nc(-c2ccncc2)nc2cnccc12
Activity [2]: 2500 /mm2
